What was measured:
[1] = target: viral α2,3-sialyltransferase (Myxoma virus, UniProt Q9YJT3); assay type: biochemical; settings: LacNAc-O-gr = 100; for Relative Rate (2.7 mM): acceptor 2.7 mM, relative rate of sialic acid transfer, 37° C., pH 6.1
Protocol: Acceptor (54 nmol), CMP-NANA (40 nmol), and CMP-^3H-NANA (150,000-180,000 dpm) were added to a mixture of cell lysate (16 μL), water (3 μL) and 1 μL of assay buffer (250 mM MES, 0.5% Triton CF54, pH 7.0) in a 0.5 mL microfuge tube. Reaction mixtures were incubated at 37° C., diluted with water to 200 μL and loaded onto a C18 Sep-Pak reverse-phase cartridge which had been pre-equilibrated with 20 mL of MeOH and 20 mL of water. The cartridge was washed with 50 mL of water and the product eluted with 4 mL of MeOH into a scintillation vial. The radioactivity of the MeOH eluates were quantitated by liquid scintillation in 10 mL of EcoLite (+) scintillation cocktail (ICN, Montreal, Quebec, Canada) in a Beckman liquid scintillation counter (LS1801).
Acceptor (54 nmol), CMP-NANA (40 nmol), and CMP-^3H-NANA (150,000-180,000 dpm) were added to a mixture of cell lysate (16 μL), water (3 μL) and assay buffer (250 mM MES, 0.5% Triton CF54, pH 6.1) in a 0.5 mL microfuge tube.

[2] = system: myxoma viral α2,3-sialyl transferase; experiment: Transfer of sialic acid (CMP-3H-NANA) to Lewis a and Lewis x oligosaccharide acceptors by viral cell lysate, pH 7.0; assay type: biochemical, myxoma virus; settings: acceptor 54 nmol, 37° C., duplicate experiments
Protocol: The myxoma viral α2,3-sialyl transferase cell lysate was prepared by a method similar to that set forth in International Patent Application Publication No. WO97/18302^65, which is incorporated herein by reference.
Ten T180 flasks of confluent layers of European rabbit kidney cell (RK13) cells were infected with Brazilian myxoma virus strain, Lausanne (Lu) (ATCC VR-115) isolated Campinas, Brazil, 1949 and Uriarra (Ur) isolated Australian Capital Territory, 1953 (a derivative of Moses strain (ATCC VR-116)). The cells were kept at 37° C. for 24 hours. Twenty-four hours post infection, the cells were detached by scraping and washed with PBS. Cell lysates were prepared by suspension in 20 mL of extraction buffer (50 mM MES, pH 6.1, 0.5% Triton-X100, 100 mM NaCl, 1.5 mM MgCl2, 0.1 mM PMSF, […] aprotinin) at 4° C., for 45 minutes. The lysate was clarified by centrifugation at 2,000 g at 4° C. for 15 minutes. […]
Acceptor (54 nmol), CMP-NANA (40 nmol), and CMP-^3H-NANA (150,000-180,000 dpm) were added to a mixture of cell lysate (16 μL), water (3 μL) and 1 μL of assay buffer (250 mM MES, 0.5% Triton CF54, pH 7.0) in a 0.5 mL microfuge tube. […] The radioactivity of the MeOH eluates were quantitated by liquid scintillation in 10 mL of EcoLite (+) scintillation cocktail (ICN, Montreal, Quebec, Canada) in a Beckman liquid scintillation counter (LS1801). […]

Structure (SMILES) | Relative Rate (2.7 mM) [1] | Relative Vmax [1] | dpm (radioactive transfer to acceptor) ([2]; Incubation time 170 min., total CMP-NANA 176174) | dpm (radioactive transfer to acceptor) ([2]; Incubation time 90 min., total CMP-NANA 152644)
OC[C@H]1O[C@H](Oc2ccccc2)[C@H](O)[C@@H](O)[C@H]1O [Gal-O-phenyl] | <1 | – | – | –
CCCCCCCCO[C@@H]1O[C@H](CO)[C@@H](O[C@@H]2O[C@H](CO)[C@H](O)[C@](C)(O)[C@H]2O)[C@H](O)[C@H]1O [3′-C-methyl-lactose-octyl] | 4.1 | – | – | –
COC(=O)CCCCCCCCO[C@@H]1O[C@H](CO)[C@@H](O[C@@H]2O[C@H](CO)[C@H](O[C@H]3O[C@H](CO)[C@H](O)[C@H](O)[C@H]3O)[C@H](O)[C@H]2O)[C@H](O)[C@H]1O [Galα(1→4)-lactose-O-gr] | 12 | 17 | – | –
COC(=O)CCCCCCCCOC1OC(CO)C(O)C(O)C1NC(C)=O (stereo not drawn) [GlcNAc-O-gr] | <1 | – | – | –
COC(=O)CCCCCCCCO[C@@H]1O[C@H](CO)[C@@H](O[C@@H]2O[C@H](CO)[C@H](O)[C@H](O)[C@H]2O)[C@H](O)[C@H]1O [Lactose-O-gr] | 90 | 112 | – | –
COC(=O)CCCCCCCCO[C@H]1O[C@H](CO)[C@H](O)[C@H](O[C@@H]2O[C@H](CO)[C@H](O)[C@H](O)[C@H]2O)[C@H]1NC(C)=O [T-disaccharide-O-gr] | 64 | 51 | – | –
CCCCCCCCO[C@@H]1O[C@H](CO)[C@@H](O[C@@H]2O[C@H](CO)[C@](C)(O)[C@H](O)[C@H]2O)[C@H](O)[C@H]1O [4′-C-methyl-lactose-octyl] | 20 | – | – | –
COC(=O)CCCCCCCCOC1OC(CO)C(OC2OC(CO)C(O)C(OC3OC(CO)C(O)C(O)C3O)C2O)C(O)C1NC(C)=O (stereo not drawn) [Galα(1→3)-lacNAc-O-gr] | 18 | – | – | –
CCCCCCCCO[C@@H]1O[C@H](CO)[C@@H](O)[C@H](O)[C@H]1O [Glc-O-octyl] | <1 | – | – | –
CC(=O)N[C@H]1C(O)O[C@H](CO)[C@@H](O[C@@H]2O[C@H](CO)[C@H](O)[C@H](O)[C@H]2O)[C@@H]1O (stereo partly drawn) [LacNAc-OH] | 171 | – | – | –
COC(=O)CCCCCCCCO[C@@H]1O[C@H](CO)[C@@H](O[C@@H]2O[C@@H](C)[C@@H](O)[C@@H](O)[C@@H]2O)[C@H](O[C@@H]2O[C@H](CO)[C@H](O)[C@H](O)[C@H]2O)[C@H]1NC(C)=O [Le^a-gr, 8-methoxycarbonyloctyl β-D-galactopyranosyl-(1→3) [α-L-fucopyranosyl-(1→4)]-β-D-2-acetamide-2-deoxy-glucopyranoside] | 50 | 42 | 4161/4045 | –
COC(=O)CCCCCCCCO[C@@H]1O[C@H](CO)[C@@H](O[C@@H]2O[C@H](CO)[C@H](O)[C@H](O)[C@H]2O)[C@H](O)[C@H]1NC(C)=O [LacNAc—O-gr] | 100 | 100 | – | –
CCCCCCCCO[C@@H]1O[C@H](CO)[C@@H](O[C@@H]2O[C@H](C(C)(C)O)[C@H](O)[C@H](O)[C@H]2O)[C@H](O)[C@H]1NC(C)=O [6′,6′-C-dimethyl-LacNAc-O-octyl] | 17 | – | – | –
COC(=O)CCCCCCCCO[C@@H]1O[C@H](CO)[C@@H](O[C@@H]2O[C@H](CO)[C@H](O)[C@H](O)[C@H]2O)[C@H](O[C@@H]2O[C@@H](C)[C@@H](O)[C@@H](O)[C@@H]2O)[C@H]1NC(C)=O [Le^x-gr, 8-methoxycarbonyloctyl α-L-fucopyranosyl-(1→3)-[β-D-galactopyranosyl-(1→4)]-β-D-2-acetamide-2-deoxy-glucopyranoside] | 21 | 30 | – | 1330/1130
COC(=O)CCCCCCCCO[C@@H]1O[C@H](CO)[C@@H](O)[C@H](O[C@@H]2O[C@H](CO)[C@H](O)[C@H](O)[C@H]2O)[C@H]1NC(C)=O [Le^c-O-gr] | 79 | 90 | – | –
